Test results reported in PubChem BioAssay AID328 (DTP/NCI, 2004).
Where “and” joins values, the source holds several entries; their conditions need not be identical. Equal values may be shown once. Toxic doses and inconclusive results are not listed. Rule for the calls: active = survival T/C of 150% or more; inactive = T/C below 125% in these data.

System: BDF1 mice, P388 leukemia ip, median survival T/C
Test: NCI In Vivo Anticancer Drug Screen. Data for tumor model P388 Leukemia (intraperitoneal) in B6D2F1 (BDF1) mice
Details: endpoint: median survival time, higher = longer survival
Method in brief: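 Read-out is survival of treated animals expressed relative to the vehicle group, as a T/C ratio.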

Measured: T/C

CCCCC/C=C/c1c(C)[nH]c2ccccc2c1=O
inactive: dose: 100.0 mg/kg/injection, schedule: Q04DX003 (ip), vehicle: Klucel (hydroxypropylcellulose) (HPC) 95 % of control | dose: 200.0 mg/kg/injection, schedule: Q04DX003 (ip), vehicle: Klucel (hydroxypropylcellulose) (HPC) 95 % of control | dose: 400.0 mg/kg/injection, schedule: Q04DX003 (ip), vehicle: Klucel (hydroxypropylcellulose) (HPC) 113 % of control

c1ccc2c(c1)C1c3cccc[n+]3C2CC1n1c2ccccc2c2ccccc21 (configuration not stated)
inactive: dose: 6.25 mg/kg/injection, schedule: Q01DX009 (ip), vehicle: Klucel (hydroxypropylcellulose) (HPC) 100 % of control | dose: 12.5 mg/kg/injection, schedule: Q01DX009 (ip), vehicle: Klucel (hydroxypropylcellulose) (HPC) 100 % of control and 108 % of control | dose: 16.0 mg/kg/injection, schedule: Q01DX009 (ip), vehicle: Klucel (hydroxypropylcellulose) (HPC) 100 % of control | dose: 25.0 mg/kg/injection, schedule: Q01DX009 (ip), vehicle: Klucel (hydroxypropylcellulose) (HPC) 87 % of control and 113 % of control | dose: 50.0 mg/kg/injection, schedule: Q01DX009 (ip), vehicle: Klucel (hydroxypropylcellulose) (HPC) 91 % of control | dose: 100.0 mg/kg/injection, schedule: Q01DX009 (ip), vehicle: Klucel (hydroxypropylcellulose) (HPC) 100 % of control

CCOC(=O)NC1CCC2c3ccccc3C([N+](=O)[O-])(C1)c1ccccc12 (configuration not stated)
inactive: dose: 50.0 mg/kg/injection, schedule: Q04DX003 (ip), vehicle: saline with Tween-80 100 % of control | dose: 100.0 mg/kg/injection, schedule: Q04DX003 (ip), vehicle: saline with Tween-80 104 % of control | dose: 200.0 mg/kg/injection, schedule: Q04DX003 (ip), vehicle: saline with Tween-80 100 % of control
